Data taken from US20170296611A1, “Pharmaceutical Compositions Comprising Extracts of Sarcopoterium Spinosum, Components Thereof, and Uses Thereof” (Diabest Botanical Drugs Ltd., priority 2009, published 2017).

What was measured:
Assay type in all cases: cell-based
3T3-L1 adipocytes = assay: Free fatty acid release (lipolysis) assay in 3T3-L1 adipocytes
Method: 3T3-L1 pre-adipocytes were cultured and differentiated as described in references 8 as well as 16, 19, 20 and 21. Briefly, cells were grown to confluence in Dulbecco's Modified Eagle's Medium (DMEM) containing 10% fetal calf serum (FCS), 2 mM glutamine and 1% ampicillin. Two days after full confluence, the cells were induced to differentiate by 3 days incubation in DMEM containing 10% FCS, 0.5 mM isobutylmethylxanthine (IBMX), 1 μM dexamethasone and 100 nM insulin. This was followed by 2 days of incubation in DMEM containing 10% FCS and 100 nM insulin. The cells were grown for an additional 5-9 days in DMEM containing 10% FCS. […] Differentiated adipocytes were preincubated for 12 hours in DMEM containing 2% fatty acid-free bovine serum albumin, in the absence of FCS. Lipolysis was stimulated by treating cells with 10 μM isoproterenol for 1 hour, in the absence or presence of insulin (100 nM) or a composition (S. spinosum extract diluted to 0.001-1% V/V). Free fatty acids (FFA) released into the culture media were measured immediately using a NEFA-C kit, according to the kit instructions. Lipolysis was induced using the adrenergic agonist isoproterenol in order to analyze the extract's effect on lipolysis, and the effect of compositions comprising S. spinosum extract on isoproterenol-induced lipolysis measured, with insulin as a positive control. Differentiated adipocytes (3T3-L1) were treated with insulin (100 nM) or a composition comprising 1% (V/V) S. spinosum extract with or without the addition of isoproterenol (10 μM) for 60 min. Free fatty acid (FFA) concentration was measured […].

[1] = tested on: AML12 hepatocyte cell line; assay: [3H]2-deoxy-D-glucose uptake in hepatocytes; conditions: insulin 100 nM
Method: (§1) L6 myoblasts were grown in MEM-α containing 25 mM glucose, 10% FCS, 2 mM glutamine and 1% ampicillin. Experiments were performed on differentiated myotubes. In order to induce differentiation, myoblasts were incubated in MEM-α containing 25 mM glucose and 2% FCS for 4 days, followed by an additional 24 h incubation in a MEM-α starvation medium containing 5 mM glucose and 2% FCS. AML-12, a nontransformed hepatocyte cell line were maintained in DMEM containing 25 mM glucose, 10% FCS, 2 mM glutamine and 1% ampicillin. Differentiated adipocytes, L6 myoblasts and AML12 cells were each preincubated for 6 hours in low glucose (4.5 mM), serum-free DMEM containing 1% BSA, and then treated with either 100 nM insulin or compositions comprising different concentrations of S. spinosum extract (0.001-1% V/V). Glucose uptake was measured in triplicate samples in six-well plates using [^3H]2-deoxy-D-glucose (1 mCi/ml; American Radiolabeled Chemicals, St. Louis, Mo., USA). […] Samples were counted in the ^3H window of a Tricarb scintillation counter. […] The effect of S. spinosum compositions on glucose uptake was measured in the AML12 hepatocyte cell line, L6 skeletal myoblasts and in differentiated 3T3-L1 adipocytes, and compared to the effect of insulin. […] The uptake of [^3H]2-deoxy-D-glucose into cells was determined as described in the Materials and Methods section.

L6 myoblasts = assay: [3H]2-deoxy-D-glucose uptake in L6 myoblasts; conditions: insulin 100 nM
Method: as §1

[2] = tested on: GSK3β ser-9 phosphorylation; assay: GSK3β phosphorylation in L6 myotubes (Western blot / ELISA); conditions: insulin 100 nM, 20 min
Method: L6 myoblasts were grown in MEM-α containing 25 mM glucose, 10% FCS, 2 mM glutamine and 1% ampicillin. Experiments were performed on differentiated myotubes. In order to induce differentiation, myoblasts were incubated in MEM-α containing 25 mM glucose and 2% FCS for 4 days, followed by an additional 24 h incubation in a MEM-α starvation medium containing 5 mM glucose and 2% FCS. AML-12, a nontransformed hepatocyte cell line were maintained in DMEM containing 25 mM glucose, 10% FCS, 2 mM glutamine and 1% ampicillin. […] Protein lysates were prepared using cell extraction buffer supplemented with protease and phosphatase inhibitors. The samples were homogenized and centrifuged at 14,000 rpm for 20 min. The supernatant was collected and protein concentration was measured using the Bradford method. 20 μg protein per lane was separated by SDS-polyacrylamide gel electrophoresis. Proteins were electrophoretically transferred onto nitrocellulose membranes. The membranes were blocked in 10% dry milk, incubated with the appropriate antibodies and immunodetected using the enhanced chemiluminescence method. Differentiated L6 myotubes were treated with 100 nM insulin or composition (S. spinosum extract diluted to 0.1% V/V) for 20 min. Protein lysates were prepared using cell extraction buffer. […] GSK-3β phosphorylation was measured using the ELISA detection kit. […]

[3] = tested on: differentiated 3T3-L1 adipocytes; assay: [3H]2-deoxy-D-glucose uptake in 3T3-L1 adipocytes; conditions: insulin 100 nM
Method: 3T3-L1 pre-adipocytes were cultured and differentiated as described in references 8 as well as 16, 19, 20 and 21. Briefly, cells were grown to confluence in Dulbecco's Modified Eagle's Medium (DMEM) containing 10% fetal calf serum (FCS), 2 mM glutamine and 1% ampicillin. Two days after full confluence, the cells were induced to differentiate by 3 days incubation in DMEM containing 10% FCS, 0.5 mM isobutylmethylxanthine (IBMX), 1 μM dexamethasone and 100 nM insulin. This was followed by 2 days of incubation in DMEM containing 10% FCS and 100 nM insulin. The cells were grown for an additional 5-9 days in DMEM containing 10% FCS. […] Glucose uptake was measured in triplicate samples in six-well plates using [^3H]2-deoxy-D-glucose (1 mCi/ml; American Radiolabeled Chemicals, St. Louis, Mo., USA). […] Samples were counted in the ^3H window of a Tricarb scintillation counter. […] The effect of S. spinosum compositions on glucose uptake was measured in the AML12 hepatocyte cell line, L6 skeletal myoblasts and in differentiated 3T3-L1 adipocytes, and compared to the effect of insulin. […] The uptake of [^3H]2-deoxy-D-glucose into cells was determined as described in the Materials and Methods section.

Compound	free fatty acid release (lipolysis) (3T3-L1 adipocytes; isoproterenol 10 μM for one hour alone)	increase in glucose uptake [1]	isoproterenol-induced free fatty acid release (3T3-L1 adipocytes; isoproterenol 10 μM, 60 min, insulin 100 nM)	free fatty acid release (3T3-L1 adipocytes; unstimulated adipocytes (no isoproterenol))	increase in glucose uptake (L6 myoblasts)	increase in GSK3β ser-9 phosphorylation compared to the control [2]	increase in glucose uptake [3]
CC(C)NCC(O)c1ccc(O)c(O)c1 (stereo not shown) [isoproterenol, Isoproterenol, reference compound]	4.23±3.01 mM FFA/mg protein	–	–	–	–	–	–
insulin	–	160±12%	0.47±0.16 mM FFA/mg protein	not affected	146±11.26%	4 fold	167±13%
